The record followed here is the supplement of paper PMC10307832.

Common to all, as to assay: relative viability (nuclei count vs DMSO), 5 days (fraction); higher = more cells survive
Compound in the test “Vemurafenib + Navitoclax”: CCCS(=O)(=O)Nc1ccc(F)c(C(=O)c2c[nH]c3ncc(-c4ccc(Cl)cc4)cc23)c1F [Vemurafenib] + CC1(C)CCC(c2ccc(Cl)cc2)=C(CN2CCN(c3ccc(C(=O)NS(=O)(=O)c4ccc(N[C@H](CCN5CCOCC5)CSc5ccccc5)c(S(=O)(=O)C(F)(F)F)c4)cc3)CC2)C1 [Navitoclax] (partner 0.5 µM)
The procedure, abridged:
(§1)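 Values are medians from duplicate plates. Each reflects relative viability, defined as the nuclei count of treated wells over that of vehicle wells. Lung cancer cell lines in 1536-well plates were pin-tool dosed one day after seeding with one drug alone or with a fixed anchor-drug dose plus five library-drug doses (not always all listed) in √10 steps, then fixed, stained and imaged at 4× after 5 days.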

Compound in the test “Vemurafenib + OSI-027”: CCCS(=O)(=O)Nc1ccc(F)c(C(=O)c2c[nH]c3ncc(-c4ccc(Cl)cc4)cc23)c1F [Vemurafenib] + COc1cccc2cc(-c3nc([C@H]4CC[C@H](C(=O)O)CC4)n4ncnc(N)c34)[nH]c12 [OSI-027] (partner 0.5 µM)
The method, boiled down: as §1

Compound in the test “OSI-027 + Bortezomib”: COc1cccc2cc(-c3nc([C@H]4CC[C@H](C(=O)O)CC4)n4ncnc(N)c34)[nH]c12 [OSI-027] + CC(C)C[C@H](NC(=O)[C@H](Cc1ccccc1)NC(=O)c1cnccn1)B(O)O [Bortezomib] (partner 0.002 µM)
The method, boiled down:
as §1

Compound in the test “Alpelisib + Lapatinib”: Cc1nc(NC(=O)N2CCC[C@H]2C(N)=O)sc1-c1ccnc(C(C)(C)C(F)(F)F)c1 [Alpelisib] + CS(=O)(=O)CCNCc1ccc(-c2ccc3ncnc(Nc4ccc(OCc5cccc(F)c5)c(Cl)c4)c3c2)o1 [Lapatinib] (partner 2 µM)
The procedure, abridged: as §1

For the cell line UMC-11, the relative viability stood at 0.336 with Vemurafenib + Navitoclax (first compound 0.03162 µM); 0.327 in the test with Vemurafenib + Navitoclax (first compound 0.1 µM); 0.374 with Vemurafenib + Navitoclax (first compound 0.3162 µM); 0.319 with Vemurafenib + Navitoclax (first compound 1 µM); 0.541 in the test with Vemurafenib + OSI-027 (first compound 0.03162 µM); 0.519 with Vemurafenib + OSI-027 (first compound 0.1 µM). Also, the relative viability came out at 0.411 with Vemurafenib + OSI-027 (first compound 0.3162 µM); 0.44 with Vemurafenib + OSI-027 (first compound 1 µM); 0.565 with OSI-027 + Bortezomib (first compound 0.01 µM); 0.646 with OSI-027 + Bortezomib (first compound 0.03162 µM); 0.696 with OSI-027 + Bortezomib (first compound 0.1 µM); 0.668 in the test with OSI-027 + Bortezomib (first compound 0.3162 µM). Also, the relative viability with OSI-027 + Bortezomib (first compound 1 µM) was found to be 0.503; with Alpelisib + Lapatinib (first compound 0.04 µM), 1.03; in the test with Alpelisib + Lapatinib (first compound 0.1265 µM) it was 0.948; in the test with Alpelisib + Lapatinib (first compound 0.4 µM), 1.01; in the test with Alpelisib + Lapatinib (first compound 1.265 µM) it was 1.02; with Alpelisib + Lapatinib (first compound 4 µM), 0.875.
